Test results: patent publication US8435970B2 (priority 2006, dated 2013)
Converted amounts (≈) assume the structure as drawn. Where a name gives a salt, the structure may show the parent alone.

What was measured:
[1] = system: primary human mammary epithelial cells; experiment: In vitro studies with normal cells; settings: 24 h compound treatment, cf. tumor cells
[2] = system: human tumour derived cell lines engrafted sub-cutaneously; settings: nude mice, sub-cutaneous human tumour xenografts
[3] = system: Aurora (Histone H3 phosphorylation); experiment: Western blotting assay of downstream substrate phosphorylation; type: cell-based; settings: western blot; concentration of inhibition
OVCAR-3 tumour cells = settings: concentrations of 50 and 100 microM; PKB amplified; cited from earlier work
[4] = Gravimetric vapour sorption (GVS); type: physicochemical; settings: for hygroscopic behaviour (GVS isotherm): 0 to 95% RH, 25° C.
Procedure: E. Gravimetric Vapour Sorption (GVS):
The sample size was ca. 10-25 mg. […] The sample was loaded and unloaded at room humidity and temperature (ca. 40% RH, 25° C.) and analysed afterwards by XRPD (using a Bruker AXS C2 GADDS system).

[5] = citrate buffer, pH 4.5, aqueous buffer

SMILES: O=C(Nc1c[nH]nc1-c1nc2cc(CN3CCOCC3)ccc2[nH]1)NC1CC1 [compound of formula (I)]
- effect on normal checkpoint competent cells [1]: reversible G2/M arrest
- anti-tumour action as a single agent [2]: anti-tumour action

SMILES: O=C(Nc1c[nH]nc1-c1nc2cc(CN3CCOCC3)ccc2[nH]1)NC1CC1
- Inhibition of Histone H3 phosphorylation (Aurora) [3]: 10 to 30 nM

SMILES: O=S(=O)(NCCNCC=C(c1ccccc1)c1ccccc1)c1cccc2cnccc12 [NL-71-101]
- apoptosis induction (OVCAR-3 tumour cells): induced apoptosis

SMILES: O=C(Nc1c[nH]nc1-c1nc2cc(CN3CCOCC3)ccc2[nH]1)NC1CC1 [L-lactate salt]
- hygroscopic behaviour (GVS isotherm) [4]: does not display hygroscopic behaviour

SMILES: O=C(Nc1c[nH]nc1-c1nc2cc(CN3CCOCC3)ccc2[nH]1)NC1CC1 [free base]
- solubility [5]: ~80 mg/mL (≈ 210 mM)
- hygroscopic behaviour (GVS isotherm) ([4]; listed as Free Base): hygroscopic
- sample weight difference between 0% R.H and 95% R.H. ([4]; GVS): approximately 9%
